Laboratory results reported in patent publication US20180251431A1 (VERTEX PHARMACEUTICALS INCORPORATED, priority 2016, published 2018).

Legend:
[1] = Body weight and adverse effects during treatment in the thermal sensitivity studies; type: in vivo, mouse; conditions: ABCD1 KO mice, prophylactic (5 or 20 mg/kg) and therapeutic (32 or 64 mg/kg) PO QD experiments
Method: For the prophylactic study, mice were tested beginning at 10 months of age (before the loss of pain sensitivity) using doses of either 5 or 20 mg/kg. For the therapeutic study, mice were tested beginning at 18 months of age, after there was already a significant loss of pain sensitivity, using doses of either 32 or 64 mg/kg. […] The Plantar test (using a Hargreaves apparatus) was used and measured the latency to respond to a thermal stimulus using the following protocol. An individual mouse was placed into an individual compartment with a glass floor for about 10-15 minutes until they were settled. Each individual mouse was given three trials with an infrared source on each hind paw (alternated hind paws each time, and waited 5 minutes between each trial). The infrared source was placed under the glass floor and was positioned by the operator directly beneath the hind paw. A trial was commenced by depressing a key/button which turned on the infrared source and started a digital timer. When a response was observed (paw withdrawal), the key/button was released and the latency to respond was recorded (in seconds).

[2] = Metabolic intrinsic clearance in mouse hepatocytes; type: in vitro ADME, CD-1 mouse; conditions: CD-1, cryopreserved hepatocytes in suspension, pH 7.5, 0.5 million cells/mL, incubation for 4 hours
Method: (§1) The metabolic intrinsic clearance (CLint) of Compound 87 was determined in human, monkey, dog, rat, and mouse hepatocytes. Cryopreserved human hepatocytes (Lot Hue50c), monkey hepatocytes (cynomolgus; Lot Cy328), dog hepatocytes (beagle, Lot Db235), rat hepatocytes (Sprague Dawley; NNH), and mouse hepatocytes (CD-1; Lot Mc522) were obtained from ThermoFisher (Paisley, UK). In separate experiments, compound 87 (1 μM) was incubated with hepatocytes from each species (0.5 million cells/mL, suspension) in Dulbecco's Modified Eagle's Medium (DMEM) supplemented with 4-(2-Hydroxyethyl)piperazine-1-ethanesulfonic acid (HEPES, 9 mM) and fructose (2.2 mM) (pH 7.5). Samples were quenched with acetonitrile and analyzed by LC-MS/MS. The mean CLint for Compound 87 in human, monkey, dog, rat, and mouse hepatocytes after incubation for 4 hours was determined to be ≤2.5, ≤2.5, 7.2, 23.6 and 10.7 μL/min/million cells. Based on these date, Compound 87 was low to moderately metabolized in hepatocytes in mouse, rat, dog, monkey, and human, and the rank order of stability at […] was approximately human>monkey>dog>mouse>rat. […] The metabolic stability of Compound 87 was not expected.

[3] = Metabolic intrinsic clearance in rat hepatocytes; type: in vitro ADME; conditions: Sprague Dawley, cryopreserved hepatocytes in suspension, pH 7.5, 0.5 million cells/mL, incubation for 4 hours
Method: as §1

[4] = tested on: healthy human fibroblasts; test: Reduction in C26:0 LPC in healthy human fibroblasts in vitro; type: cell-based; conditions: Healthy 2 Fibroblast, half maximal reduction in C26:0 LPC, each number a separate measurement
[5] = Metabolic intrinsic clearance in dog hepatocytes; type: in vitro ADME; conditions: beagle, cryopreserved hepatocytes in suspension, pH 7.5, 0.5 million cells/mL, incubation for 4 hours
Method: as §1

[6] = tested on: ALD patient fibroblasts; test: Reduction in C26:0 LPC in ALD patient fibroblasts in vitro; type: cell-based, human; conditions: Patient Fibroblast (CALD 1), half maximal reduction in C26:0 LPC, each number a separate measurement
Method: Lysophosphatidylcholine (LPC) VLCFA were generated from straight chain VLCFA (SC-VLCFA) and were used clinically for newborn screening (Vogel et al., Mol. Genet. Metab. (2015) 114(4):599-603). In vitro efficacy studies were performed by measuring LPC VLCFA level (measured as LPC synthesis) in various cell lines, specifically in 1) human HEK cells, 2) patient derived cells, and 3) human microglia, which are disease relevant CNS cells. Compound 87's dose response relationships and IC50 values were measured in HEK cells, primary patient fibroblasts, immortalized patient lymphocytes, and a human microglial cell line. […]
Primary patient fibroblasts were obtained from Coriell Institute for Medical Research. […] The plate was sealed with a plate tape and put at −80° C. for further VLCFA extraction and VLCFA quantitation on LC-MS, as described below.
VLCFA Extraction and Quantitation on LCMS:
Treated cells were transferred to a polypropylene v-bottom plate and then centrifuged at 1690×g for 10 minutes. […] The plates were then sealed with pierceable capmats (Micronic MP53017) and stored at −20° C. until further analyzed using UPHLC/Mass Spectrometry Readout, as described above in example 2.1, which measured the integration of ^13C into lysophosphatidylcholine (LPC) indicated fatty acid elongation. […]

hepatocyte CLint at 1 μM [2]: 10.7 µL/min/1e6 cells
hepatocyte CLint at 1 μM [3]: 23.6 µL/min/1e6 cells
hepatocyte CLint at 1 μM [5]: 7.2 µL/min/1e6 cells
Compound: O=C(Nc1ccn(-c2ccnc(F)c2)n1)C1(c2ccccc2F)CC1 [Compound 87, 1-(2-fluorophenyl)-N-[1-(2-fluoro-4-pyridyl)pyrazol-3-yl]cyclopropanecarboxamide]
body weight and adverse effects during treatment [1]: did not have a significant drop in body weight or any other noticeable adverse effect
IC50 [4]: 6 nM
IC50 ([4]; Homo sapiens, Fibroblast): 9 nM
IC50 ([6]; Homo sapiens, Fibroblast): 17 nM
IC50 [6]: 23 nM
